Assay results taken from US20180008688A1, “METHOD AND COMPOSITIONS FOR ENHANCING IMMUNOTHERAPEUTIC TREATMENT OF A CANCER” (Augusta University Research Institute, Inc., priority 2016, published 2018).
“Also recorded” adds a separate entry of the source. Where two headings read alike, the source gives them in different places. Peptide text beside a SMILES is read from it. * marks the point of attachment. Cbz = O=C(OCc1ccccc1)*

Assays:
CD33+ cells = assay: Human myeloid cell cultures matured with recombinant IFNγ; format: cell-based; details: cultured in GM-CSF+IL-6, then IFNγ; FIG. 5A
From the text: (Minneapolis, MN) and isolated by centrifugation over Ficoll-Paque PLUS (GE Healthcare), followed by enrichment for myeloid cells using CD33^+ micro-beads (Miltenyi MACs). Alternatively, myelomonocytic cells were enriched by counter-flow elutriation as previously described (Munn et al., (2002) Science 297: 1867-1870; Munn et al., (2004) J. lmmunol. 172: 4100-4110). Immature myeloid cells were then generated by culture for 7 days as previously described (Koehn et al., (2015) Blood 126: 1621-1628; Lechner et al., (2010) J. lmmunol. 185, 2273-2284). Briefly, PBMC were cultured in RPMI-1640 medium with 10% FBS, 1% Pen/Strep, 1% GlutaMax as well as recombinant human GM-CSF (10 ng/ml, R&D Systems)+IL-6 (10 ng/ml, R&D Systems). Culture growth media was refreshed on days 3 and 6; on day 7, cells were washed and returned to culture in medium without GM-CSF/IL-6. Replicate cultures were then treated for 2 days with or without recombinant human IFNγ (30ng/ml, R&D Systems) to induce maturation, and with or without p53 inhibitor pifithrin-α (10 uM, Sigma). After 48 h, cultures were harvested and stained for CD11b, CD33, phospho-p53-Ser15, IRF5 and BDCA3 (CD141).
Human peripheral-blood mononuclear cells were enriched for monocytic cells, then cultured in GM-CSF+IL-6 as described by Koehn et al. ((2015) Blood 126: 1621-1628). […]

Ly6c+CD11c^NEG cells = assay: Mouse myeloid-cell maturation co-cultures; format: cell-based; details: exposed to signals from activated T cells
Description: Mouse myeloid-cell maturation cultures: Maturation co-cultures were performed in V-bottom wells (Nunc 249952 V96), using RPMI-1640 medium with 10% fetal bovine serum, but no added cytokines. The preferred source of myeloid cells was TDLN or spleen from mice bearing B16F10 or E.G7 tumors. Rapid isolation of cells was important for viability, so cells were disaggregated by passing once through a 40 μm mesh, then stained briefly on ice and FACS-sorted into ice-cold medium using low-shear fluidics and a large nozzle (Mo-Flo cell sorter). […] myeloid cells were enriched by sorting for Ly6c^+ that were CD11c^NEG B220^NEG (to exclude dendritic cells and B cells). For some experiments, myeloid cells were sub-fractionated using sort dates based on expression of Gr-1 and CD11b.
Sorted Ly6c+ myeloid cells were added to co-cultures as previously described (Sharma et al., (2013) Immunity 38: 998-1012). As an inflammatory stimulus for differentiation, CD8^+ effector cells (5×10^4) were FACS-sorted from spleens of either OT-I or pmel-1 mice (both performed equivalently), and added to co-cultures along with 100 nM cognate peptide (SIINFEKL (SEQ ID NO: 1) or hgp100). […]

p53 = assay: Tumors in PTEN^Treg-KO mice treated in vivo with pifithrin; design: species or system mouse
B16F10 tumors [1] = format: in vivo; details: for response of B16 melanoma tumors to chemotherapy alone: single moderate dose
Description: In vivo tumor studies: The B16F10 and E.G7 (EL4-OVA) cell lines were obtained from ATCC. B16-OVA (B16F10 transfected with full-length chicken ovalbumin) clone MO4 was according to Falo et al. ((1995) Nat. Med. 1: 649-653). B16F10 cells expressing EGFP protein (B16-GFP cells) were derived using lentiviral transfection. Tumor implantation was performed as described (Sharma et al., (2007) J. Clin. Invest. 117: 2570-2582), using 1×10^5 cells for B16F10 and 1×10^6 cells for other cell lines (large inocula were used to ensure rapid tumor engraftment and immune suppression). […] Tumor volume was calculated from orthogonal diameters using the formula V=L×W^2×π/6. Mice received approved euthanasia when tumors reached a size of 300 mm^2 (product of orthogonal diameters); death was never used a planned endpoint in any study.
(§1) Tumor implantation was performed as described (Sharma et al., (2007) J. Clin. Invest. 117: 2570-2582). VO-OHpic was given at 10 mg/kg/day i.p., in 10% DMSO/PBS. Cyclophosphamide was given at 150 mg/kg i.p×1 dose; and oxaliplatin at 5 mg/kg i.p×1 dose. Nutlin-3a was administered daily at 10 mg/kg/day i.p. For checkpoint blockade, mice received anti-CTLA-4 plus a cocktail of antibodies against the PD-1 pathway. Vaccines and T cell adoptive transfer studies were performed as described (Sharma et al., (2015) Sci. Advances. 1: e1500845).
VO-OHpic/CTX, nutlin-3a, oxaliplatin and immunotherapy regimens: The vanadate compound VO-OHpic (Mak et al., (2010) J. Chem. Biol. 3: 157-163) inhibits PTEN activity, and this drug was used to destabilize PTEN+Tregs during chemotherapy. Like all of the available PTEN-inhibitors, VO-OHpic can also affect other phosphatases (Spinelli et al., (2015) Adv. Biol. Regul. 57: 102-111).
VO-OHpic was given at 10 mg/kg/day i.p., in 10% DMSO/PBS. Cyclophosphamide was given at 150 mg/kg i.p×1 dose. Oxaliplatin was given at 5 mg/kg i.p×1 dose. […] For checkpoint blockade, mice received anti-CTLA-4 (clone 9D9, BioXcell) plus a cocktail of antibodies against the PD-1 pathway: anti-PD-L2, clone TY25 (Yamazaki et al., (2002) J. Immunol. 169: 5538-5545); anti-PD-1, clone J43 (Agata et al., (1996) Int. Immunol. 8: 765-772); and anti-PD-L1, clone MIH7 (Tsushima et al., (2003) Eur. J. Immunol. 33: 2773-2782). A cocktail was used in order to block the PD-1 pathway as completely as possible and thus minimize any peculiarities of a single blocking antibody.

[2] = test system: B16F10, EL4, LLC, Tg(Grm1)Epv, MMTV-PyMT; format: in vivo, mouse; details: every tumor tested
From the text: Conversely, the effect of chemotherapy could be fully replaced by adoptive transfer of exogenous tumor-specific CD8^+ T cells (e.g., pmel-1 cells) activated with vaccine.

B16F10 tumors [3] = assay: Tumors in knockout hosts treated with VO-OHpic or CTX/VO-OHpic; format: in vivo, mouse; details: VO-OHpic alone, LysMcre/p53-KO mice
From the text: (§2) Mice with a nuclear-localizing Cre-recombinase knock-in replacing one copy of the Lyz2 gene (Clausen et al., (1999) Transgenic Res. 8: 265-277) (strain 004781, Jax) were crossed as heterozygotes with homozygous p53^flox/flox mice (Marino et al., (2000) Genes Dev. 14: 994-1004) (strain 008462, Jax).
In vivo tumor studies: The B16F10 and E.G7 (EL4-OVA) cell lines were obtained from ATCC. B16-OVA (B16F10 transfected with full-length chicken ovalbumin) clone MO4 was according to Falo et al. ((1995) Nat. Med. 1: 649-653). B16F10 cells expressing EGFP protein (B16-GFP cells) were derived using lentiviral transfection. Tumor implantation was performed as described (Sharma et al., (2007) J. Clin. Invest. 117: 2570-2582), using 1×10^5 cells for B16F10 and 1×10^6 cells for other cell lines (large inocula were used to ensure rapid tumor engraftment and immune suppression). Tumors were implanted bilaterally in each mouse as a control for reproducible implantation technique; replicate tumor diameters in a single mouse were typically within ±15%. Tumor volume was calculated from orthogonal diameters using the formula V=L×W^2×π/6. Mice received approved euthanasia when tumors reached a size of 300 mm^2 (product of orthogonal diameters); death was never used a planned endpoint in any study.
Tumor implantation was performed as described (Sharma et al., (2007) J. Clin. Invest. 117: 2570-2582). […]

B16F10 tumors [4] = details: VO-OHpic combined with chemotherapy; Sharma et al. 2015; cited from earlier work
E.G7 tumors [5] = assay: E.G7/oxaliplatin model in LysMcre/p53-KO hosts with or without nutlin-3a; format: in vivo, mouse; details: LysMcre/p53 knockout mice
From the text: To test whether the relevant target of nutlin in tumors was specifically the p53 expression in myeloid dendritic cells, the E.G7/oxaliplatin model in LysMcre/p53-KO hosts was used. If mice lacked the relevant p53 in tumor-associated myeloid cells, then LysMcre/p53-KO mice should lose all anti-tumor effect of nutlin. For these studies, mice received congenically-marked OT-I cells to monitor whether T cells were still rescued by IL-12 in tumors.
as §2, §1

E.G7 tumors [6] = assay: RIP-mOVA mice with E.G7 tumors treated with oxaliplatin with or without nutlin; format: in vivo; details: oxaliplatin in the absence of nutlin
Description: A classical model of ICD was first tested in which EL4-OVA lymphoma tumors (clone E.G7) are treated with oxaliplatin chemotherapy (Ghiringhelli et al., (2009) Nat. Med. 15: 1170-1178). E.G7 bears the same model antigen as B16-OVA (described with the RIP-mOVA model, above), so it was possible to test the effects of nutlin plus oxaliplatin in the RIP-mOVA model.

T cells = assay: Purified T cells activated with anti-CD3/CD28 with nutlin, IL-12, MG-132; format: cell-based, mouse; details: MG-132 in the presence of both nutlin and IL-12
From the text: Regulation of p53 is complex, and it can be targeted by multiple pathways besides MDM2 (Chao C. C. (2015) Clin. Chim. Acta 438: 139-147). If IL-12 is rescuing T cells from nutlin, one possibility is that IL-12 might activate an alternative pathway of p53 degradation, not dependent on MDM2. To test this, purified T cells were activated (without any antigen-presenting cells or other cells) using anti-CD3/CD28 antibodies. T cells were activated in the presence or absence of nutlin with or without addition of recombinant IL-12.
Finally, to test the hypothesis that IL-12 targeted p53 for proteolytic degradation via an alternated pathway, proteasomal function was inhibited using MG-132. T cells were activated using immobilized CD3/CD28 as above. […] CFSE proliferation tracked inversely with p53 levels. […] While MG-132 affects many intracellular pathways besides p53, these findings support the basic hypothesis that IL-12 bypasses nutlin by targeting p53 for degradation via an alternative route.

[7] = VO-OHpic alone, WT control mice

recombinant IFNγ: recombinant human IFNγ (R&D Systems) used to induce maturation
maturation of CD33+ cells (CD33+ cells): rapidly matured into activated cells expressing CD83, CD141, XCR1 and Batf3

pifithrin
differentiation of Ly6c+ MDSCs into Ly6c+CD103+ dendritic cells (Ly6c+CD11c^NEG cells): inhibited | emergence of Ly6c+CD103+ dendritic cell subset (p53): selectively prevented the emergence | immune surveillance of tumors (p53): allowed tumors to escape immune surveillance

O=P1(N(CCCl)CCCl)NCCCO1 (stereo not shown) [cyclophosphamide]
response of B16 melanoma tumors to chemotherapy alone (B16F10 tumors [1]): highly resistant | interaction of chemotherapy drug with PTEN-inhibitor [2]: synergy

Nc1ccn([C@@H]2O[C@H](CO)[C@@H](O)C2(F)F)c(=O)n1 [gemcytabine]
response of B16 melanoma tumors to chemotherapy alone (B16F10 tumors [1]): highly resistant | interaction of chemotherapy drug with PTEN-inhibitor [2]: synergy

VO-OHpic
anti-tumor effect (B16F10 tumors [1]; PTEN-inhibitor by itself, large established tumors, FIG. 12): no effect | Ly6c+CD103+ dendritic cells (B16F10 tumors [1]; [7]): allowed emergence | tumor growth (B16F10 tumors [1]; [7]): suppressed tumor growth | enhancement of tumor growth by PTEN-inhibitor (B16F10 tumors [1]; systems of the disclosure): does not enhance the growth of tumors | tumor growth (B16F10 tumors [3]): not suppressed | destabilization of PTEN+Tregs in tumors (B16F10 tumors [4]): rapid and essentially complete destabilization

O=C1[O][Pt]2([NH][C@@H]3CCCC[C@H]3[NH]2)[O]C1=O [oxaliplatin]
response to oxaliplatin chemotherapy (E.G7 tumors [5]): unable to respond; also recorded: lost all response to treatment | anti-tumor effect (E.G7 tumors [6]): transient regression | autoimmune diabetes (E.G7 tumors [6]): rapidly died from progressive autoimmune diabetes

CC(C)C[C@@H](C=O)NC(=O)[C@H](CC(C)C)NC(=O)[C@H](CC(C)C)NC(=O)OCc1ccccc1 [MG-132] (Cbz-Leu-Leu-Leu-aldehyde)
T cell proliferation (T cells): inhibited proliferation | p53 levels in activated T cells (T cells): progressively increased p53
